Test results published in PMC3961306, “Comparison of the Cancer Gene Targeting and Biochemical Selectivities of All Targeted Kinase Inhibitors Approved for Clinical Use” (PLoS ONE, 2014).
Like-named read-outs stand apart in the source and are kept apart here.

Key:
[1] = system: forty-four human cancer cell lines; experiment: Cell proliferation assay (ATPlite, 72 hours) in the 44 cell line Oncolines panel; format: cell-based; settings: Homo sapiens
[2] = target: panel of more than 300 wild-type and mutant kinases (313 kinase panel) (Homo sapiens, UniProt Q16288); experiment: Kinase profiling in a biochemical assay panel (mobility shift assays and ELISA), %-inhibition at 1 μM; selectivity entropy; settings: kinase TRKC; 1 μM
[3] = target: panel of more than 300 wild-type and mutant kinases (313 kinase panel) (Homo sapiens, UniProt P29376); experiment: as above; settings: kinase LTK; compound at 1 μM
[4] = target: T1, panel of more than 300 wild-type and mutant kinases (313 kinase panel) (Homo sapiens, UniProt Q96PF2); experiment: as above; settings: kinase TSSK2; 1 μM
T1 sequence (Q96PF2 1-358): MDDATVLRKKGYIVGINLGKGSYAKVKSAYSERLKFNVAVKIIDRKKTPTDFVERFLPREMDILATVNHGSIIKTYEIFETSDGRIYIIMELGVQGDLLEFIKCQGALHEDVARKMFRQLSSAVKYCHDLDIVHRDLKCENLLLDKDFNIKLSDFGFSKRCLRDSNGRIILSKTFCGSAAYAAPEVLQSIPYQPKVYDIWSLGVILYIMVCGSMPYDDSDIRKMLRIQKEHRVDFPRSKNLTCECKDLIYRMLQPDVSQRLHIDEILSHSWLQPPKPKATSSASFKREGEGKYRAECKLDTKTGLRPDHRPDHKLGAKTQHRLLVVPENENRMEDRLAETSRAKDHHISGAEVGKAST

[5] = target: panel of more than 300 wild-type and mutant kinases (313 kinase panel) (Homo sapiens, UniProt Q15303); experiment: as above
panel of more than 300 wild-type and mutant kinases (313 kinase panel) (Homo sapiens, UniProt Q15303), sequence (Q15303 26-1308, change not shown): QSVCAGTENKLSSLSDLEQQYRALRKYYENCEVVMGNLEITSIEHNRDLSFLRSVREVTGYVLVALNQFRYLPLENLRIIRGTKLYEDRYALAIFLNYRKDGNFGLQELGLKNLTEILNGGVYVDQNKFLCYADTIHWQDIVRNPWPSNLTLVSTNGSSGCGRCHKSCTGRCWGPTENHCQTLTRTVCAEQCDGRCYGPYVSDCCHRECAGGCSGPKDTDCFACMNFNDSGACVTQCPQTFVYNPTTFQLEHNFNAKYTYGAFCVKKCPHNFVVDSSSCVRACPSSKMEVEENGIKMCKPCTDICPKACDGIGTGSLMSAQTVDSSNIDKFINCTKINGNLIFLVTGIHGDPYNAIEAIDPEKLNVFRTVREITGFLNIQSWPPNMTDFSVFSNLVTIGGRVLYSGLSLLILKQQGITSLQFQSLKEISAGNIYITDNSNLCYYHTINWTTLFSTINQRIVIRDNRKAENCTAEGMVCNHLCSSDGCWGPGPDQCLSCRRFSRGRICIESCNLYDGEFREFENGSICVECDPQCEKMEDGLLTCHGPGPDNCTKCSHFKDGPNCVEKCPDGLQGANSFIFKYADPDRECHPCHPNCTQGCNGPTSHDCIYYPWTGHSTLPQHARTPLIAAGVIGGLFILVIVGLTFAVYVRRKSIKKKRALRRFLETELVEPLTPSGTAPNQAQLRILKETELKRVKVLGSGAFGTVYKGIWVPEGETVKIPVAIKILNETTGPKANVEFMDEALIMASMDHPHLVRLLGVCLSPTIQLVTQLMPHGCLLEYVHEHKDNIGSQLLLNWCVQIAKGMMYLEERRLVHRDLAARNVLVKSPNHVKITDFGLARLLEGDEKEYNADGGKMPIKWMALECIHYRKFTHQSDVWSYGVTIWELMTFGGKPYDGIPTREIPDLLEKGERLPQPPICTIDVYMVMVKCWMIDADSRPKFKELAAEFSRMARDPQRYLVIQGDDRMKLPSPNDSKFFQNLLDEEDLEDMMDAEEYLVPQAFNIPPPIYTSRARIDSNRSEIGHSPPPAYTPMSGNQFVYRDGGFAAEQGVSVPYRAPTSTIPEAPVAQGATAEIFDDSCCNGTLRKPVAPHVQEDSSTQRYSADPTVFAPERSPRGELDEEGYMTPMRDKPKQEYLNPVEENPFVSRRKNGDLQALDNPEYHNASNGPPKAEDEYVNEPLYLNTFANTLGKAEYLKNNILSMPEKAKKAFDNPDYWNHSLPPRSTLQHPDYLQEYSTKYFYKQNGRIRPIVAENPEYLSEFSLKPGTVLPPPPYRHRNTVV

[6] = target: panel of more than 300 wild-type and mutant kinases (313 kinase panel) (Homo sapiens, UniProt Q9H2G2); experiment: as above
[7] = target: panel of more than 300 wild-type and mutant kinases (313 kinase panel) (Homo sapiens, UniProt Q13177); experiment: as above; settings: kinase PAK2; 1 μM
[8] = target: panel of more than 300 wild-type and mutant kinases (313 kinase panel) (Homo sapiens, UniProt Q9H1R3); experiment: as above; settings: kinase skMLCK; 1 μM
[9] = target: panel of more than 300 wild-type and mutant kinases (313 kinase panel) (Homo sapiens, UniProt O95819); experiment: as above
[10] = target: T2, panel of more than 300 wild-type and mutant kinases (313 kinase panel) (Homo sapiens, UniProt O14920); experiment: as above; settings: kinase IKKβ; compound at 1 μM
T2 sequence (O14920 1-756): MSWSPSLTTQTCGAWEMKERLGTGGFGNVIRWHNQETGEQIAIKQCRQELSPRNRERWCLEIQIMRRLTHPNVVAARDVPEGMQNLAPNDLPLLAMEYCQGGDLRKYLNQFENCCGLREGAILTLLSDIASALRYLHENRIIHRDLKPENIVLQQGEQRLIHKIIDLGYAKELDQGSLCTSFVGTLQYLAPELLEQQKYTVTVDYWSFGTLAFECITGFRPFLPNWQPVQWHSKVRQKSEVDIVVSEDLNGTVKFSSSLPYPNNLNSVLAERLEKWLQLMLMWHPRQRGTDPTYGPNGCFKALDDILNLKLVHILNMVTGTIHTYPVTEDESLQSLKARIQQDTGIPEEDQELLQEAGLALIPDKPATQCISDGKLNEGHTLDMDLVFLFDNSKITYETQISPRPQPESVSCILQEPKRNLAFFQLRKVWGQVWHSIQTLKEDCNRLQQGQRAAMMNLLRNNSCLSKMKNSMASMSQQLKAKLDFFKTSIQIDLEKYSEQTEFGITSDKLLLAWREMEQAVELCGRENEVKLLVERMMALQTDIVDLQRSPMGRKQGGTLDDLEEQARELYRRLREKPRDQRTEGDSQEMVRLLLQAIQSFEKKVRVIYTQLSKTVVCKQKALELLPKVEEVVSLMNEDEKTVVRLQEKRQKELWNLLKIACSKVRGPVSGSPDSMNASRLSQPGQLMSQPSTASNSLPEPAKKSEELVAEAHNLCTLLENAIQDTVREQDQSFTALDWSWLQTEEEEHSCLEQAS

[11] = 4-4 cell, read-out: cell panel IC50, J82
[12] = 4-4 cell, read-out: cell panel IC50, PA-1
[13] = 4-4 cell, read-out: cell panel IC50, SJCRH30
[14] = 4-4 cell, read-out: cell panel IC50, SR
[15] = 769-P, read-out: cell panel IC50, 769-P
[16] = 786-0, read-out: cell panel IC50, 786-0
[17] = A 172, read-out: cell panel IC50, A-172
[18] = A204, read-out: cell panel IC50, A-204
[19] = A498, read-out: cell panel IC50, A-498
[20] = A549, read-out: cell panel IC50, A-549
[21] = A-375, read-out: cell panel IC50, A375
[22] = A-427, read-out: cell panel IC50, A-427
[23] = ACHN, read-out: cell panel IC50, ACHN
[24] = AN3-CA, read-out: cell panel IC50, AN3 CA
[25] = AU565, read-out: cell panel IC50, AU-565
[26] = BT-20, read-out: cell panel IC50, BT-20
[27] = BT-549, read-out: cell panel IC50, BT-549
[28] = BXPC-3, read-out: cell panel IC50, BxPC-3
[29] = C-33-A, read-out: cell panel IC50, C-33 A
[30] = CAL-27, read-out: cell panel IC50, CAL 27
[31] = CCRF-CEM, read-out: cell panel IC50, CCRF-CEM
[32] = DLD-1, read-out: cell panel IC50, DLD-1
[33] = FaDu, read-out: cell panel IC50, FaDu
[34] = HCT-15, read-out: cell panel IC50, HCT-15
[35] = HCT-116, read-out: cell panel IC50, HCT-116
[36] = Hs-578T, read-out: cell panel IC50, Hs 578T
[37] = Jurkat E6.1, read-out: cell panel IC50, Jurkat E6.1
[38] = K562, read-out: cell panel IC50, K-562
[39] = LS174T, read-out: cell panel IC50, LS 174T
[40] = LoVo, read-out: cell panel IC50, LoVo
[41] = MG-63, read-out: cell panel IC50, MG-63
[42] = MOLT-4, read-out: cell panel IC50, MOLT-4
[43] = MeWo, read-out: cell panel IC50, MeWo
[44] = NCI-H82, read-out: cell panel IC50, NCI-H82
[45] = NCI-H460, read-out: cell panel IC50, NCI-H460
[46] = OVCAR-3, read-out: cell panel IC50, OVCAR-3
[47] = RPMI-7951, read-out: cell panel IC50, RPMI-7951
[48] = SHP77, read-out: cell panel IC50, SHP-77
[49] = SK-N-AS, read-out: cell panel IC50, SK-N-AS
[50] = SW48, read-out: cell panel IC50, SW48
[51] = SW480, read-out: cell panel IC50, SW480
[52] = SW-620, read-out: cell panel IC50, SW620
[53] = U2OS, read-out: cell panel IC50, U-2 OS
[54] = U-87 MG, 72 h, read-out: IC50 in cell proliferation assay (table S5 cellpanel data)

O=S(=O)(c1cccc2cnccc12)N1CCCNCC1 [fasudil]
IC50 [1, 11]: > 31.6 µM | IC50 [1, 12]: > 31.6 µM | IC50 [1, 13]: > 31.6 µM | IC50 [1, 14]: 14.6 µM | IC50 [1, 15]: > 31.6 µM | IC50 [1, 16]: > 31.6 µM | IC50 [1, 17]: > 31.6 µM | IC50 [1, 18]: > 31.6 µM | IC50 [1, 19]: > 31.6 µM | IC50 [1, 20]: > 31.6 µM | IC50 [1, 21]: 19.7 µM | IC50 [1, 22]: > 31.6 µM | IC50 [1, 23]: > 31.6 µM | IC50 [1, 24]: 29.8 µM | IC50 [1, 25]: > 31.6 µM | IC50 [1, 26]: > 31.6 µM | IC50 [1, 27]: > 31.6 µM | IC50 [1, 28]: > 31.6 µM | IC50 [1, 29]: > 31.6 µM | IC50 [1, 30]: > 31.6 µM | IC50 [1, 31]: > 31.6 µM | IC50 [1, 32]: > 31.6 µM | IC50 [1, 33]: > 31.6 µM | IC50 [1, 34]: > 31.6 µM | IC50 [1, 35]: > 31.6 µM | IC50 [1, 36]: > 31.6 µM | IC50 [1, 37]: > 31.6 µM | IC50 [1, 38]: > 31.6 µM | IC50 [1, 39]: > 31.6 µM | IC50 [1, 40]: > 31.6 µM | IC50 [1, 41]: > 31.6 µM | IC50 [1, 42]: > 31.6 µM | IC50 [1, 43]: > 31.6 µM | IC50 [1, 44]: > 31.6 µM | IC50 [1, 45]: > 31.6 µM | IC50 [1, 46]: > 31.6 µM | IC50 [1, 47]: > 31.6 µM | IC50 [1, 48]: > 31.6 µM | IC50 [1, 49]: > 31.6 µM | IC50 [1, 50]: > 31.6 µM | IC50 [1, 51]: > 31.6 µM | IC50 [1, 52]: > 31.6 µM | IC50 [1, 53]: > 31.6 µM | IC50 [1, 54]: > 31.6 µM | %-inhibition of TRKC [2]: -5.34% | %-inhibition of LTK [3]: -3.76% | %-inhibition of TSSK2 [4]: -0.28% | %-inhibition of HER4 ([5]; kinase HER4, compound at 1 μM): -0.227% | %-inhibition of SLK ([6]; kinase SLK, 1 μM): 4.5% | %-inhibition of PAK2 [7]: -16% | %-inhibition of skMLCK [8]: -1.56% | %-inhibition of HGK ([9]; kinase HGK, compound at 1 μM): -1.82% | %-inhibition of IKKβ [10]: 3.71%

CS(=O)(=O)CCNCc1ccc(-c2ccc3ncnc(Nc4ccc(OCc5cccc(F)c5)c(Cl)c4)c3c2)o1 [lapatinib]
IC50 [1, 11]: 15.5 µM | IC50 [1, 12]: 12.4 µM | IC50 [1, 13]: 12.3 µM | IC50 [1, 14]: 7.6 µM | IC50 [1, 15]: 8.8 µM | IC50 [1, 16]: 11.5 µM | IC50 [1, 17]: 13.8 µM | IC50 [1, 18]: 10.6 µM | IC50 [1, 19]: 9.97 µM | IC50 [1, 20]: 15.6 µM | IC50 [1, 21]: 14.9 µM | IC50 [1, 22]: 12.7 µM | IC50 [1, 23]: 5.79 µM | IC50 [1, 24]: 12 µM | IC50 [1, 25]: 0.137 µM | IC50 [1, 26]: 17.3 µM | IC50 [1, 27]: 16.7 µM | IC50 [1, 28]: 6.59 µM | IC50 [1, 29]: 0.446 µM | IC50 [1, 30]: 2.56 µM | IC50 [1, 31]: 10.1 µM | IC50 [1, 32]: 12.9 µM | IC50 [1, 33]: 0.902 µM | IC50 [1, 34]: 8.92 µM | IC50 [1, 35]: 13.8 µM | IC50 [1, 36]: 14.6 µM | IC50 [1, 37]: 7.05 µM | IC50 [1, 38]: 14.2 µM | IC50 [1, 39]: 7.07 µM | IC50 [1, 40]: 9.08 µM | IC50 [1, 41]: 12.3 µM | IC50 [1, 42]: 8.79 µM | IC50 [1, 43]: 14.5 µM | IC50 [1, 44]: 11.7 µM | IC50 [1, 45]: 16.2 µM | IC50 [1, 46]: > 31.6 µM | IC50 [1, 47]: 13.7 µM | IC50 [1, 48]: 14.1 µM | IC50 [1, 49]: 12.7 µM | IC50 [1, 50]: 22.8 µM | IC50 [1, 51]: 13.2 µM | IC50 [1, 52]: 21.1 µM | IC50 [1, 53]: 12.9 µM | IC50 [1, 54]: 10.5 µM | %-inhibition of TRKC [2]: 4% | %-inhibition of LTK [3]: 4.66% | %-inhibition of TSSK2 [4]: -7.54% | %-inhibition of HER4 ([5]; 1 µM): 102% | %-inhibition of SLK ([6]; 1 µM): 10% | %-inhibition of PAK2 [7]: 7% | %-inhibition of skMLCK [8]: 2.11% | %-inhibition of HGK ([9]; 1 µM): 1% | %-inhibition of IKKβ [10]: 0.904%
